Data from patent US6949544B2, “Inhibitors of c-Jun N-terminal kinases (JNK) and other protein kinases” (Vertex Pharmaceuticals Incorporated, priority 2001, dated 2005).

How the values were obtained:
activated JNK3 = molecular target: T1, activated JNK3 (Homo sapiens, UniProt P53779); experiment: JNK inhibition assay (spectrophotometric coupled-enzyme assay); assay type: biochemical; settings: 10 nM activated JNK3, 10 μM ATP; read-out: Activity in the JNK3 Inhibition Assay (Ki rating A-C)
T1 construct: One such construct encodes amino acid residues Ser40-Glu402 of JNK3α1 and is preceded by Met and Gly residues; Met-Gly (initiator methionine and added glycine) (N); made in house; host or cells: E. coli BL21 (DE3)
How it was run: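 Activated (doubly phosphorylated, MKK7(DD)-activated) human JNK3, 10 nM, preincubated 10 min at 30 °C with inhibitor in 0.1 M HEPES pH 7.5, 10 mM MgCl2, 200 μM EGF receptor peptide, PK/LDH-coupled. Started with 10 μM ATP; A340 decrease followed at 30 °C. Ki from competitive inhibition model fit.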

CDK-2/Cyclin A = CDK-2/Cyclin A (Homo sapiens, UniProt P24941); experiment: CDK2 inhibition assay (standard coupled enzyme assay); assay type: biochemical; settings: 25 nM CDK-2/Cyclin A; read-out: CDK2 Inhibitory Activity (Ki rating A-C)
How it was run: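 CDK-2/Cyclin A (25 nM final) started the reaction after 10-min, 30° C preincubation of compound (30 μM final) with peptide (100 μM), ATP and coupling enzymes in HEPES pH 7.5.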

T1 sequence (P53779 40-402): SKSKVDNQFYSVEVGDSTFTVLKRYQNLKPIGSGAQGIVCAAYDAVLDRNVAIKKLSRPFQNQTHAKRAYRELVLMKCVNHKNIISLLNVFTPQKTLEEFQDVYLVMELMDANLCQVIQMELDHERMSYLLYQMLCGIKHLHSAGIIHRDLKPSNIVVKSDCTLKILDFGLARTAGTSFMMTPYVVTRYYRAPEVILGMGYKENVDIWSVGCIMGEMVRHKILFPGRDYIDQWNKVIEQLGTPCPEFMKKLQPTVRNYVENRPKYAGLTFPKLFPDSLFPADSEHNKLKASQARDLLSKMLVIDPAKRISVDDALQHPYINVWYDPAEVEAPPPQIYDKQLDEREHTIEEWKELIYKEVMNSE

| Ki (activated JNK3) | Ki (CDK-2/Cyclin A) | SMILES |
| --- | --- | --- |
| < 100 nM | > 5000 nM | COc1cc(-c2ccnc(Nc3ccc(N)cc3)n2)cc(OC)c1OC [Compound I-34] |
| < 100 nM | > 5000 nM | COc1cc(-c2ccnc(Nc3cccc(N)c3)n2)cc(OC)c1OC [Compound I-57] |
